# Reference: patent publication US4200635A, “Antibacterially active amides” (Beecham Group Limited, priority 1977, dated 1980)
# Where two headings read alike, the source gives them in different places.
# How the values were obtained:
# [1] = system: Pasteurella multocida 1633; test: MIC, serial dilution in nutrient agar, human bacteria; format: cell-based; settings: nutrient agar containing 5% chocolated horse blood
# [2] = system: Haemophilus influenzae Q1; test: as above; format: cell-based; settings: nutrient agar containing 5% chocolated horse blood
# [3] = system: Haemophilus influenzae Wy21; test: as above; format: cell-based
# [4] = system: Neisseria flavescens 8263; test: as above; format: cell-based; settings: nutrient agar containing 5% chocolated horse blood
# Bacillus subtilis 6633 = test: as above; format: cell-based
# Staph. aureus Oxford = test: as above; format: cell-based; settings: Staphylococcus aureus
# Staph. aureus Russell = test: as above; format: cell-based; settings: Staphylococcus aureus
# Strep. pneumoniae CN33 = test: as above; format: cell-based; settings: Streptococcus pneumoniae
# Bord. bronchiseptica BO9 = test: MIC, veterinary bacteria; format: cell-based; settings: Bordetella bronchiseptica
# Past. multocida PAI = test: MIC, veterinary bacteria; format: cell-based; settings: Pasteurella multocida
# Past. haemolytica PA5 = test: MIC, veterinary bacteria; format: cell-based; settings: Mannheimia haemolytica
# Staph. aureus B4 = test: MIC, veterinary bacteria; format: cell-based; settings: Staphylococcus aureus
# Staph. aureus 152 = test: MIC, veterinary bacteria; format: cell-based; settings: Staphylococcus aureus
# Strep. uberis SPU 1 = test: MIC, veterinary bacteria; format: cell-based; settings: Streptococcus uberis, SPU1
# [5] = system: Strep. dysgalactiae SPD 1; test: MIC, veterinary bacteria; format: cell-based; settings: Streptococcus dysgalactiae, SPD1
# M. dispar NCTC 10125 = test: in vitro MIC, anti-mycoplasmal activity; format: cell-based; settings: Friis' broth, microtiter method
# Source text: (§1) Tables 3 and 4 show the in vitro MIC values (μg/ml) of the compounds of Examples 1 to 9 against a number of mycoplasma organisms, determined in Friis' broth using the microtiter method.
# M. fermentans MWKL4 = test: in vitro MIC, anti-mycoplasmal activity; format: cell-based; settings: Mycoplasmopsis fermentans, Friis' broth, microtiter method
# Source text: as §1
# M. pulmonis JB = test: in vitro MIC, anti-mycoplasmal activity; format: cell-based; settings: Mycoplasmopsis pulmonis, Friis' broth, microtiter method
# Source text: as §1
# [6] = system: M. suipneumoniae J2206/183b; test: in vitro MIC, anti-mycoplasmal activity; format: cell-based; settings: Mesomycoplasma hyopneumoniae, Friis' broth, microtiter method
# Source text: as §1
# M. pneumoniae 427a = test: in vitro MIC, anti-mycoplasmal activity; format: cell-based; settings: Mycoplasmoides pneumoniae, Friis' broth, microtiter method
# [7] = system: Neisseria catarrhalis 1502; test: MIC, serial dilution in nutrient agar, human bacteria; format: cell-based
# M. suipneumoniae Str. 11 = test: in vitro MIC, anti-mycoplasmal activity; format: cell-based; settings: Mesomycoplasma hyopneumoniae, Friis' broth, microtiter method
# M. dispar H225 = test: in vitro MIC, anti-mycoplasmal activity; format: cell-based
# Source text: as §1
# M. pneumoniae ATCC 15492 = test: in vitro MIC, anti-mycoplasmal activity; format: cell-based; settings: Mycoplasmoides pneumoniae, ATCC15492, Friis' broth, microtiter method
# Source text: as §1
# Mouse blood levels = format: in vivo, male albino mice, CS1 strain; settings: for concentration at 5 min / concentration at 10 min / concentration at 20 min / concentration at 0.5 h / concentration at 1 h / half-life: blood, sc, 50 mg/kg subcutaneous; for concentration at 5 min: 5 minutes after dosing; for concentration at 5 min / concentration at 10 min / concentration at 20 min / concentration at 0.5 h / concentration at 1 h: mean of 5 experiments, assay Neisseria catarrhalis, read-out: Concentration (blood level); for concentration at 10 min: 10 minutes after dosing; for concentration at 20 min: 20 minutes after dosing; for concentration at 0.5 h: 30 minutes after dosing; for concentration at 1 h: 60 minutes after dosing
# Procedure: The blood levels of the 5-ethoxycarbonylpentyl amide of monic acid A were measured after subcutaneous dosing to male albino mice.
# Species: Albino male mice 18-22 g CS1 strain.
# Routes: Subcutaneous and oral.
# Dose: 50 mg/kg. This compound was supplied as an oil. It was administered as a solution in 10% DMF v/v in PBS or water.
# Assay: Neisseria catarrhalis, immediate assay of samples.
# [8] = Haemophilus influenzae Wy21, nutrient agar containing 5% chocolated horse blood, read-out: M.I.C.
# [9] = Bacillus subtilis 6633, nutrient agar containing 5% chocolated horse blood, read-out: M.I.C.
# [10] = Staph. aureus Oxford, nutrient agar containing 5% chocolated horse blood, read-out: M.I.C.
# [11] = Staph. aureus Russell, nutrient agar containing 5% chocolated horse blood, read-out: M.I.C.
# [12] = Past. multocida PAI, read-out: M.I.C.
# [13] = Past. haemolytica PA5, read-out: M.I.C.
# [14] = Staph. aureus B4, read-out: M.I.C.
# [15] = Strep. uberis SPU 1, read-out: M.I.C.
# [16] = Strep. dysgalactiae SPD 1, read-out: M.I.C.
# [17] = Strep. pneumoniae CN33, nutrient agar containing 5% chocolated horse blood, read-out: M.I.C.
# [18] = Neisseria catarrhalis 1502, nutrient agar containing 5% chocolated horse blood, read-out: M.I.C.
# [19] = Bord. bronchiseptica BO9, read-out: M.I.C.
# [20] = M. dispar H225, Friis' broth, microtiter method, read-out: M.I.C.
MIC (Strep. pneumoniae CN33; [17]) [µg/mL],Compound,MIC [1] [µg/mL],MIC [2] [µg/mL],MIC (Bacillus subtilis 6633; [9]) [µg/mL],MIC (Staph. aureus Oxford; [10]) [µg/mL],MIC (Staph. aureus Russell; [11]) [µg/mL],MIC (Bord. bronchiseptica BO9; BO9) [µg/mL],MIC (Past. multocida PAI; [12]) [µg/mL],MIC (Past. haemolytica PA5; [13]) [µg/mL],MIC (Staph. aureus B4; [14]) [µg/mL],MIC (Staph. aureus 152) [µg/mL],MIC (Strep. uberis SPU 1; [15]) [µg/mL],"MIC [5, 16] [µg/mL]",MIC (M. dispar NCTC 10125) [µg/mL],MIC (M. fermentans MWKL4) [µg/mL],MIC (M. pulmonis JB) [µg/mL],MIC [6] [µg/mL],MIC (M. pneumoniae 427a) [µg/mL],"MIC [7, 18] [µg/mL]",MIC (M. suipneumoniae Str. 11) [µg/mL],also measured
,"CC(=CC(N)=O)CC1OCC(CC2OC2C(C)C(C)O)C(O)C1O (centres unmarked) [Example 1, Primary amide of monic acid A]",10,5,100,50,100,40,40,40,> 80,> 80,20,20,1.9,15.6,15.6,7.8,250,,,"MIC [3, 8]: 10 µg/mL; MIC [4]: 2.5 µg/mL; MIC (Strep. pneumoniae CN33; CN33): 100 µg/mL"
25,"CNC(=O)C=C(C)CC1OCC(CC2OC2C(C)C(C)O)C(O)C1O (centres unmarked) [Example 2, N-Methylamide of monic acid A]",2.5,0.2,10,2.5,25,,,,,,,,< 0.5,7.8,1,< 0.5,125,,,MIC [4]: 1 µg/mL
50,"CC(=CC(=O)N(C)C)CC1OCC(CC2OC2C(C)C(C)O)C(O)C1O (centres unmarked) [Example 4, Dimethylamide of monic acid A]",2.5,2.5,25,5,25,,5,40,20,> 80,20,20,2.5,1.25,5,> 10,> 10,2.5,10,"MIC [3, 8]: 2.5 µg/mL; MIC (Bord. bronchiseptica BO9; [19]): 40 µg/mL; MIC (M. dispar H225; [20]): 5 µg/mL; MIC (M. pneumoniae ATCC 15492): > 10 µg/mL"
,"COC(=O)CCCCCCCCNC(=O)C=C(C)CC1OCC(CC2OC2C(C)C(C)O)C(O)C1O (centres unmarked) [Example 7, 8-Methoxycarbonyloctylamide of monic acid A]",1,0.5,,,25,,1,8,4,8,0.125,0.0625,0.156,< 0.02,< 0.02,10,10,,1.25,"MIC ([3]; Haemophilus influenzae, WY21): 0.5 µg/mL; MIC ([7]; Neisseria, 1502): 0.1 µg/mL; MIC (Bacillus subtilis 6633; Bacillus subtilis, 6633): 2.5 µg/mL; MIC (Staph. aureus Oxford): 10 µg/mL; MIC (Bord. bronchiseptica BO9; [19]): 2 µg/mL; MIC (M. pneumoniae ATCC 15492): 10 µg/mL"
5,"C=CCNC(=O)C=C(C)CC1OCC(CC2OC2C(C)C(C)O)C(O)C1O (centres unmarked) [Example 8, Allylamide of monic acid A]",0.05,> 100,2.5,2.5,100,,1.25,0.625,5,20,0.625,0.156,0.078,0.039,0.039,1.25,10,100,0.625,MIC (Bord. bronchiseptica BO9; [19]): 1.25 µg/mL; MIC (M. dispar H225; [20]): 0.078 µg/mL
,"COC(=O)CCCCCNC(=O)C=C(C)CC1OCC(CC2OC2C(C)C(C)O)C(O)C1O (centres unmarked) [Example 9, 5-Methoxycarbonylpentylamide of monic acid A]",0.2,0.2,10,,,10,10,10,20,20,,,0.312,0.039,0.039,1.25,5,< 0.02,0.625,MIC (Staph. aureus Oxford): 25 µg/mL; MIC (Staph. aureus Russell): 100 µg/mL; MIC (Strep. pneumoniae CN33; CN33): 2.5 µg/mL; MIC (Strep. uberis SPU 1): 0.625 µg/mL; MIC [5]: 0.312 µg/mL; MIC (M. dispar H225; [20]): 0.312 µg/mL
,"COC(=O)CCNC(=O)C=C(C)CC1OCC(CC2OC2C(C)C(C)O)C(O)C1O (centres unmarked) [Example 10, 2-Methoxycarbonylethylamide of monic acid A]",,,,,,20,,,,,,20,,,,,,,,MIC (Past. multocida PAI): 0.625 µg/mL; MIC (Past. haemolytica PA5; PA5): 5 µg/mL; MIC (Staph. aureus B4; B4): 80 µg/mL; MIC (Strep. uberis SPU 1): 2.5 µg/mL
,"C/C(=C\C(=O)OCCCCCCCCC(=O)O)C[C@@H]1OC[C@H](C[C@@H]2O[C@H]2[C@@H](C)[C@H](C)O)[C@@H](O)[C@H]1O [Pseudomonic Acid, reference compound]",,,,,,,,,,,,,,,,,,,,concentration at 5 min (Mouse blood levels): 8200 ng/mL; concentration at 10 min (Mouse blood levels): 3700 ng/mL; concentration at 20 min (Mouse blood levels): 1100 ng/mL; concentration at 0.5 h (Mouse blood levels): 620 ng/mL; concentration at 1 h (Mouse blood levels): < 500 ng/mL; half-life (Mouse blood levels): 5 min

Compound,MIC (Strep. pneumoniae CN33; [17]) [µg/mL],MIC [1] [µg/mL],MIC [2] [µg/mL],MIC (Bacillus subtilis 6633; [9]) [µg/mL],MIC (Staph. aureus Oxford; [10]) [µg/mL],MIC (Staph. aureus Russell; [11]) [µg/mL],MIC (Bord. bronchiseptica BO9; BO9) [µg/mL],MIC (Past. multocida PAI; [12]) [µg/mL],MIC (Past. haemolytica PA5; [13]) [µg/mL],MIC (Staph. aureus B4; [14]) [µg/mL],MIC (Staph. aureus 152) [µg/mL],MIC (Strep. uberis SPU 1; [15]) [µg/mL],"MIC [5, 16] [µg/mL]",MIC (M. dispar NCTC 10125) [µg/mL],MIC (M. fermentans MWKL4) [µg/mL],MIC (M. pulmonis JB) [µg/mL],MIC [6] [µg/mL],MIC (M. pneumoniae 427a) [µg/mL],"MIC [7, 18] [µg/mL]",MIC (M. suipneumoniae Str. 11) [µg/mL],also measured
"CCOC(=O)CCCCCNC(=O)C=C(C)CC1OCC(CC2OC2C(C)C(C)O)C(O)C1O (centres unmarked) [Example 5, 5-Ethoxycarbonylpentylamide of monic acid A]",1,,0.05,10,25,50,,0.35,11,11,45,0.35,0.7,0.156,0.039,< 0.02,2.5,> 10,,1.25,"MIC [3, 8]: 0.5 µg/mL; MIC ([7]; Neisseria, 1502): 0.05 µg/mL; MIC (Bord. bronchiseptica BO9; [19]): 23 µg/mL; MIC (M. dispar H225; [20]): 0.312 µg/mL; MIC (M. pneumoniae ATCC 15492): 10 µg/mL; concentration at 5 min (Mouse blood levels): 22100 ng/mL; concentration at 10 min (Mouse blood levels): 22600 ng/mL; concentration at 20 min (Mouse blood levels): 16100 ng/mL; concentration at 0.5 h (Mouse blood levels): 9100 ng/mL; concentration at 1 h (Mouse blood levels): < 4000 ng/mL; half-life (Mouse blood levels): 15 min; blood levels compared with pseudomonic acid (Mouse blood levels; subcutaneous dosing): higher and more prolongued than those obtained after subcutaneous dosing of pseudomonic acid"
"CC(=CC(=O)N1CCOCC1)CC1OCC(CC2OC2C(C)C(C)O)C(O)C1O (centres unmarked) [Example 6, Morpholinyl amide of monic acid A]",10,1,0.2,,10,50,20,,20,20,> 80,2.5,2.5,2.5,0.625,0.156,10,> 10,5,2.5,"MIC ([3]; Haemophilus influenzae, WY21): 0.5 µg/mL; MIC (Bacillus subtilis 6633; Bacillus subtilis, 6633): 10 µg/mL; MIC (Past. multocida PAI): 0.625 µg/mL; MIC (M. dispar H225): 1.25 µg/mL; MIC (M. pneumoniae ATCC 15492): > 10 µg/mL"
